# Key:
# [1] = test system: Beet Armyworm (Spodoptera exigua, LAPHEG); experiment: Bioassay on Beet Armyworm (BAW), 128-well diet tray assay; assay type: in vivo; conditions: 168 h, 50 μg/cm^2 on artificial diet, second instar larvae, 25° C., five to seven days, average of eight wells, read-out: BAW % Control (or Mortality) rating
# Description: (§1) Bioassays on Beet Armyworm (Spodoptera exigua, LAPHEG) (“BAW”) and Cabbage Looper (Trichoplusia ni, TRIPNI) (“CL”)
# (§2) Certain molecules disclosed in this document were tested against BAW and CL using procedures described in the following examples. In the reporting of the results, the “BAW & CL Rating Table” was used (See Table Section).
# Bioassays on BAW were conducted using a 128-well diet tray assay. One to five second instar BAW larvae were placed in each well (3 mL) of the diet tray that had been previously filled with 1 mL of artificial diet to which 50 μg/cm^2 of the test molecule (dissolved in 50 μL of 90:10 acetone-water mixture) had been applied (to each of eight wells) and then allowed to dry. Trays were covered with a clear self-adhesive cover, vented to allow gas exchange, and held at 25° C., 14:10 light-dark for five to seven days. Percent mortality was recorded for the larvae in each well; activity in the eight wells was then averaged. The results are indicated in the table entitled “Table ABC: Biological Results” (See Table Section).
# [2] = test system: Cabbage Looper (Trichoplusia ni, TRIPNI); experiment: Bioassay on Cabbage Looper (CL), 128-well diet tray assay; assay type: in vivo; conditions: 168 h, 50 μg/cm^2 on artificial diet, second instar larvae, 25° C., five to seven days, average of eight wells, read-out: CL % Control (or Mortality) rating
# Description: as §1, §2
# Bioassays on CL were conducted using a 128-well diet tray assay. One to five second instar CL larvae were placed in each well (3 mL) of the diet tray that had been previously filled with 1 mL of artificial diet to which 50 μg/cm^2 of the test molecule (dissolved in 50 μL of 90:10 acetone-water mixture) had been applied (to each of eight wells) and then allowed to dry. Trays were covered with a clear self-adhesive cover, vented to allow gas exchange, and held at 25° C., 14:10 light-dark for five to seven days. Percent mortality was recorded for the larvae in each well; activity in the eight wells was then averaged. The results are indicated in the table entitled “Table ABC: Biological Results” (See Table Section).
SMILES,mortality at 50 µg/cm2 [1] [%],mortality at 50 µg/cm2 [2] [%]
"COC(C)c1ccc(C)cc1N1C(=O)CS/C1=N\C(=O)Nc1ccc(CNc2ncn(-c3ccc(OC(F)(F)F)cc3)n2)cc1 (stereo not shown) [F1, (Z)-1-(3-(2-(1-Methoxyethyl)-5-methylphenyl)-4-oxothiazolidin-2-ylidene)-3-(4-(((1-(4-(trifluoromethoxy)phenyl)-1H-1,2,4-triazol-3-yl)amino)methyl)phenyl)urea]",50 to 100,50 to 100
"COCc1ccc(C)cc1N1C(=O)CS/C1=N\C(=O)Nc1ccc(CNc2ncn(-c3ccc(OC(F)(F)F)cc3)n2)cc1 [F4, (Z)-1-(3-(2-(Methoxymethyl)-5-methylphenyl)-4-oxothiazolidin-2-ylidene)-3-(4-(((1-(4-(trifluoromethoxy)phenyl)-1H-1,2,4-triazol-3-yl)amino)methyl)phenyl)urea]",50 to 100,50 to 100
"Cc1ccc(C(C)C)c(N2C(=O)CS/C2=N\C(=O)Nc2ccc(CNc3ncn(-c4ccc(OC(F)(F)F)cc4)n3)c(Cl)c2)c1 [F7, (Z)-1-(3-Chloro-4-(((1-(4-(trifluoromethoxy)phenyl)-1H-1,2,4-triazol-3-yl)amino)methyl)phenyl)-3-(3-(2-isopropyl-5-methylphenyl)-4-oxothiazolidin-2-ylidene)urea]",50 to 100,50 to 100
"CCCc1ccc(C)cc1N1C(=O)CS/C1=N\C(=O)Nc1ccc(CNc2ncn(-c3ccc(OC(F)(F)F)cc3)n2)c(Cl)c1 [F8, (Z)-1-(3-Chloro-4-(((1-(4-(trifluoromethoxy)phenyl)-1H-1,2,4-triazol-3-yl)amino)methyl)phenyl)-3-(3-(5-methyl-2-propylphenyl)-4-oxothiazolidin-2-ylidene)urea]",50 to 100,50 to 100
"COCc1ccc(C)cc1N1C(=O)CS/C1=N\C(=O)Nc1ccc(CNc2ncn(-c3ccc(OC(F)(F)F)cc3)n2)c(Cl)c1 [F9, (Z)-1-(3-Chloro-4-(((1-(4-(trifluoromethoxy)phenyl)-1H-1,2,4-triazol-3-yl)amino)methyl)phenyl)-3-(3-(2-(methoxymethyl)-5-methylphenyl)-4-oxothiazolidin-2-ylidene)urea]",50 to 100,50 to 100
"Cc1ccc(C(C)C)c(N2C(=O)CS/C2=N\C(=O)Nc2ccc(CNc3ncn(-c4ccc(OC(F)(F)F)cc4)n3)cn2)c1 [F11, (Z)-1-(3-(2-Isopropyl-5-methylphenyl)-4-oxothiazolidin-2-ylidene)-3-(5-(((1-(4-(trifluoromethoxy)phenyl)-1H-1,2,4-triazol-3-yl)amino)methyl)pyridin-2-yl)urea]",50 to 100,50 to 100
"CCCc1ccc(C)cc1N1C(=O)CS/C1=N\C(=O)Nc1ccc(CNc2ncn(-c3ccc(OC(F)(F)F)cc3)n2)cn1 [F12, (Z)-1-(3-(5-Methyl-2-propylphenyl)-4-oxothiazolidin-2-ylidene)-3-(5-(((1-(4-(trifluoromethoxy)phenyl)-1H-1,2,4-triazol-3-yl)amino)methyl)pyridin-2-yl)urea]",50 to 100,50 to 100
"COCc1ccc(C)cc1N1C(=O)CS/C1=N\C(=O)Nc1ccc(CNc2ncn(-c3ccc(OC(F)(F)F)cc3)n2)cn1 [F13, (Z)-1-(3-(2-(Methoxymethyl)-5-methylphenyl)-4-oxothiazolidin-2-ylidene)-3-(5-(((1-(4-(trifluoromethoxy)phenyl)-1H-1,2,4-triazol-3-yl)amino)methyl)pyridin-2-yl)urea]",50 to 100,50 to 100
"COCc1ccc(C)cc1N1C(=O)CS/C1=N\C(=O)Nc1ccc(CN(C)c2ncn(-c3ccc(OC(F)(F)F)cc3)n2)cn1 [F14, (Z)-1-(3-(2-(Methoxymethyl)-5-methylphenyl)-4-oxothiazolidin-2-ylidene)-3-(5-((methyl(1-(4-(trifluoromethoxy)phenyl)-1H-1,2,4-triazol-3-yl)amino)methyl)pyridin-2-yl)urea]",50 to 100,50 to 100
"Cc1ccc(C(C)C)c(N2C(=O)CS/C2=N\C(=O)Nc2ccc(CN(C)c3ncn(-c4ccc(OC(F)(F)F)cc4)n3)cn2)c1 [F16, (Z)-1-(3-(2-Isopropyl-5-methylphenyl)-4-oxothiazolidin-2-ylidene)-3-(5-((methyl(1-(4-(trifluoromethoxy)phenyl)-1H-1,2,4-triazol-3-yl)amino)methyl)pyridin-2-yl)urea]",50 to 100,50 to 100
"COCc1ccc(C)cc1N1C(=O)CS/C1=N\C(=O)Nc1ccc(CN(C)c2ncn(-c3ccc(OC(F)(F)F)cc3)n2)cc1F [F17, (Z)-1-(2-Fluoro-4-((methyl(1-(4-(trifluoromethoxy)phenyl)-1H-1,2,4-triazol-3-yl)amino)methyl)phenyl)-3-(3-(2-(methoxymethyl)-5-methylphenyl)-4-oxothiazolidin-2-ylidene)urea]",50 to 100,50 to 100
"COCc1ccc(C)cc1N1C(=O)CS/C1=N\C(=O)Nc1ccc(CN(C)c2ncn(-c3ccc(OC(F)(F)F)cc3)n2)c(Cl)c1 [F18, (Z)-1-(3-Chloro-4-((methyl(1-(4-(trifluoromethoxy)phenyl)-1H-1,2,4-triazol-3-yl)amino)methyl)phenyl)-3-(3-(2-(methoxymethyl)-5-methylphenyl)-4-oxothiazolidin-2-ylidene)urea]",0 to 50,0 to 50
"CCCc1ccc(C)cc1N1C(=O)CS/C1=N\C(=O)Nc1ccc(CN(C)c2ncn(-c3ccc(OC(F)(F)F)cc3)n2)c(Cl)c1 [F19, (Z)-1-(3-Chloro-4-((methyl(1-(4-(trifluoromethoxy)phenyl)-1H-1,2,4-triazol-3-yl)amino)methyl)phenyl)-3-(3-(5-methyl-2-propylphenyl)-4-oxothiazolidin-2-ylidene)urea]",0,0
"Cc1ccc(C(C)C)c(N2C(=O)CS/C2=N\C(=O)Nc2ccc(CN(C)c3ncn(-c4ccc(OC(F)(F)F)cc4)n3)c(Cl)c2)c1 [F20, (Z)-1-(3-Chloro-4-((methyl(1-(4-(trifluoromethoxy)phenyl)-1H-1,2,4-triazol-3-yl)amino)methyl)phenyl)-3-(3-(2-isopropyl-5-methylphenyl)-4-oxothiazolidin-2-ylidene)urea]",0 to 50,50 to 100
"Cc1ccc(C(C)C)c(N2C(=O)CS/C2=N\C(=O)Nc2ccc(CN(C)c3ncn(-c4ccc(OC(F)(F)F)cc4)n3)cc2F)c1 [F22, (Z)-1-(2-Fluoro-4-((methyl(1-(4-(trifluoromethoxy)phenyl)-1H-1,2,4-triazol-3-yl)amino)methyl)phenyl)-3-(3-(2-isopropyl-5-methylphenyl)-4-oxothiazolidin-2-ylidene)urea]",50 to 100,50 to 100
"CCCc1ccc(C)cc1N1C(=O)CS/C1=N\C(=O)Nc1ccc(CN(C)c2ncn(-c3ccc(OC(F)(F)F)cc3)n2)cc1 [F23, (Z)-1-(4-((Methyl(1-(4-(trifluoromethoxy)phenyl)-1H-1,2,4-triazol-3-yl)amino)methyl)phenyl)-3-(3-(5-methyl-2-propylphenyl)-4-oxothiazolidin-2-ylidene)urea]",50 to 100,50 to 100
"Cc1ccc(C(C)C)c(N2C(=O)CS/C2=N\C(=O)Nc2ccc(CN(C)c3ncn(-c4ccc(OC(F)(F)F)cc4)n3)cc2)c1 [F24, (Z)-1-(3-(2-Isopropyl-5-methylphenyl)-4-oxothiazolidin-2-ylidene)-3-(4-((methyl(1-(4-(trifluoromethoxy)phenyl)-1H-1,2,4-triazol-3-yl)amino)methyl)phenyl)urea]",50 to 100,50 to 100
"Cc1ccc(C(C)C)c(N2C(=O)CS/C2=N\C(=O)Nc2ccc(C(=O)N(C)c3ncn(-c4ccc(OC(F)(F)F)cc4)n3)cc2)c1 [F25, (Z)-4-(3-(3-(2-isopropyl-5-methylphenyl)-4-oxothiazolidin-2-ylidene)ureido)-N-methyl-N-(1-(4-(trifluoromethoxy)phenyl)-1H-1,2,4-triazol-3-yl)benzamide]",50 to 100,50 to 100
"Cc1ccc(C(C)C)c(N2C(=O)CS/C2=N\C(=O)Nc2ccc(NC(=O)c3ncn(-c4ccc(OC(F)(F)F)cc4)n3)cc2)c1 [F26, (Z)—N-(4-(3-(3-(2-Isopropyl-5-methylphenyl)-4-oxothiazolidin-2-ylidene)ureido)phenyl)-1-(4-(trifluoromethoxy)phenyl)-1H-1,2,4-triazole-3-carboxamide]",50 to 100,50 to 100
"Cc1ccc(C(C)C)c(N2C(=O)CS/C2=N\C(=O)Nc2ccc(N(C)C(=O)c3ncn(-c4ccc(OC(F)(F)F)cc4)n3)cc2)c1 [F27, (Z)—N-(4-(3-(3-(2-Isopropyl-5-methylphenyl)-4-oxothiazolidin-2-ylidene)ureido)phenyl)-N-methyl-1-(4-(trifluoromethoxy)phenyl)-1H-1,2,4-triazole-3-carboxamide]",50 to 100,50 to 100
